Reference: patent US20240115629A1, “ORAL COMPOSITION” (BLIS TECHNOLOGIES LIMITED, priority 2021, published 2024)

Tested on: BLIS M18 and K12
Test: Comparison of foaming agents: inhibition on agar plates
Format: cell-based, Streptococcus salivarius
Details: 10 μL spotted on CABK12 and BaCa agar plates, 37° C. 5% CO2, 24 hrs
Method: Samples were prepared by • 1. mixing 1.1 g of BLIS M18 with 9.9 g of phosphate buffered saline (PBS) for 5 min and diluting by 1 in 10 with PBS • 2. adding to CABK12 and BaCa agar plates • 3. spotting 10 μL of foaming agent to plates and incubating at 37° C. 5% CO2 for 24 hrs, • 4. determining inhibition

Compound | Inhibitory to BLIS M18 and K12
CCCCCCCCO[C@@H]1O[C@H](CO)[C@@H](O)[C@H](O)[C@H]1O [Caprylyl glucoside] | Yes
CCCCCCCCCCO[C@@H]1O[C@H](CO)[C@@H](O)[C@H](O)[C@H]1O [Decyl Glucoside] | Yes
CCCCCCCC/C=C\CCCCCCCC(=O)OCCOCC(OCCO)C1OCC(OCCO)C1OCCO (stereo not shown) [Polysorbate 80] | No
CCCCCCCCCCCCOS(=O)(=O)[O-].[Na+] [Sodium Lauryl Sulphate] | Yes
Coco Glucoside | Yes
Lauryl glucoside | Yes
Sodium Cocyl Isethionate | Yes
